In patent US11491100B2, “Dermal composition comprising chelator and base” (Primal Therapies, Inc., priority 2013, dated 2022):

Experiment: Ranking of candidate chelator and base agents by potency score
Set-up: key: 1 = most desired, 3 = least desired
Settings: not given
Text: Methods of selecting base and chelator compositions depend on use. Compositions may be determined by ranking base, chelator and enhancer agents, from most desired to least desired, for multiple parameters such as safety, solubility, compatibility, pH, potency, taste, consistency, smell and others.
Non-toxic chelator and base compositions may be ranked according to the desired parameters of potency and approved-for-oral-consumption. A desired parameter such as potency for a candidate chelator or base may be given a score of “1” for most desired and a score of “3” for least desired. In one embodiment, candidate chelators, bases and enhancers may be ranked by FDA approval for oral consumption. Agents with a score of “1” may have approval for the desired indication and a score of “3” may not have approval or may not be approved for the desired indication. The resultant overall score may be tabulated and may be used to facilitate selection.
Microbes were cultured in growth media and plated at 10^3 CFU/well in a 96 well microtiter plate and cultured for 24 h. Wells were then treated with 10-50 μL of media only as control or with media+chelator agents, base agents, acid agents, neutral agents or enhancer agents for 30 min at RT followed by repleation in […] of fresh RPMI pH 7.2. Plates were then incubated for an additional 48-72 h prior to harvest. Wells were washed 3× in PBS and residual biofilm was stained using crystal violet. Wells were washed 4× in PBS and the amount of retained stain was measured. […] Synergistic effects were evaluated and numerous compounds were examined for their ability to synergistically act with chelators to inhibit biofilm formation (examples of some test compounds analyzed for synergy with chelators are presented in Table 2).
Screens of base components to use in compositions comprising chelator were performed. Briefly, the pH of S. mutans cultures were measured 24 and 48 hr post administration of chelator and candidate base components. Combinations of chelator, base and enhancer agents were also evaluated for affecting metabolic activity and/or metabolism of S. mutans (FIG. 3).

Row | Compound | POTENCY (score 1-3)
1 | NCCCC[C@H](N)C(=O)O [Lysine] | 2

Same assay, conditions: base agents that may be used in combination with chelators

Row | Compound | POTENCY (score 1-3)
2 | Vitamin B12 | 2
3 | CNC(=C[N+](=O)[O-])NCCSCc1ccc(CN(C)C)o1 [Remitidine, reference compound] | 1
4 | NC(CO)(CO)CO [Tris amine] | 2
5 | NC(N)=Nc1nc(CSCCC(N)=NS(N)(=O)=O)cs1 [Famotidine, reference compound] | 1
6 | OC[C@H]1O[C@H](O[C@H]2[C@H](O)[C@@H](O)[C@H](O)O[C@@H]2CO)[C@H](O)[C@@H](O)[C@@H]1O [D-maltose] | 1
7 | Cc1ncc(CO)c(CO)c1O [Pyridoxine] | 1
8 | OCN(CO)CO [Tris (hydroxymethyl) amine] | 2
9 | Cc1ncc(COP(=O)(O)O)c(C=O)c1O [Pyridoxal-5-phosphate] | 1
10 | O=c1cc[nH]c(=O)[nH]1 [Uracil] | 3
11 | protamine sulfate | 2
12 | O=P([O-])([O-])O.[Ca+2] [Dibasic calcium phosphate] | 3
13 | Vitamin K | 1
14 | Lysozyme | 1
15 | Cc1ncc(CO)c(CN)c1O [Pyridoxamine] | 1

Same assay, conditions: chelators that may be used in combination with base agents

Row | Compound | POTENCY (score 1-3)
16 | Oc1ccc(C=Cc2cc(O)cc(O)c2)cc1 [Resveratrol] | 2
17 | Chlorophylls | 1
18 | Vitamin B12 | 1
19 | O=C(OC[C@H]1O[C@@H](OC(=O)c2cc(O)c(O)c(OC(=O)c3cc(O)c(O)c(O)c3)c2)[C@H](OC(=O)c2cc(O)c(O)c(OC(=O)c3cc(O)c(O)c(O)c3)c2)[C@@H](OC(=O)c2cc(O)c(O)c(OC(=O)c3cc(O)c(O)c(O)c3)c2)[C@@H]1OC(=O)c1cc(O)c(O)c(OC(=O)c2cc(O)c(O)c(O)c2)c1)c1cc(O)c(O)c(OC(=O)c2cc(O)c(O)c(O)c2)c1 [Tannic acid] | 1
20 | COc1cc(/C=C/C(=O)CC(=O)/C=C/c2ccc(O)c(OC)c2)ccc1O [Curcumin] | 2
21 | O=C(O)[C@@H](S)[C@@H](S)C(=O)O [DMSA] | 1
22 | CC(=O)N(O)CCCCCNC(=O)CCC(=O)N(O)CCCCCNC(=O)CCC(=O)N(O)CCCCCN [Deferasiroxamine B] | 1
23 | O=P(O)(O)O[C@H]1[C@H](OP(=O)(O)O)[C@@H](OP(=O)(O)O)[C@H](OP(=O)(O)O)[C@@H](OP(=O)(O)O)[C@H]1OP(=O)(O)O [Inositol hexaphosphate] | 2
24 | O=C(O)CN(CCOCCOCCN(CC(=O)O)CC(=O)O)CC(=O)O [EGTA] | 1
25 | Deferoxamines | 1
26 | O=c1c(O)c(-c2ccc(O)c(O)c2)oc2cc(O)cc(O)c12 [Quercetin] | 1
27 | Cyclodextrins | 1
28 | O=S(=O)(O)CC(S)CS (centres unmarked) [DMPS] | 1
29 | Anachelins | 1
30 | Ferrioxamines | 1
31 | CC(=O)N(O)CCC[C@@H]1NC(=O)[C@H](CCCN(O)C(C)=O)NC1=O [Rhodotorulic acid] | 1
32 | O=C(O[C@@H]1Cc2c(O)cc(O)cc2O[C@@H]1c1cc(O)c(O)c(O)c1)c1cc(O)c(O)c(O)c1 [EGCG] | 1
